The text below walks through data of US20240246918A1, “COMPOUNDS AND COMPOSITIONS AS EIF4E INHIBITORS AND THE USES THEREOF” (Ribometrix, Inc., priority 2022, published 2024).

One experiment concerns the target T1, human eIF4E protein (Homo sapiens, UniProt P06730).
T1 construct: purchased Novus NBP-45314
In words: Biochemical competitive binding assay (TR-FRET competition, EDA-m7GDP-ATTO-647N probe). The following applies: read-out: hEIF4E TR-FRET IC50. The method in brief:
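IC50 values come from 4-parameter fits of the normalized 665/620 nm TR-FRET ratio. Compound was first incubated 15 min with 4 nM recombinant His-eIF4E bound to 2.5 nM Eu-anti-His antibody, then 15 min with 5 nM m7GDP-ATTO-647N tracer, in pH 7.5 HEPES buffer with 100 mM KCl, Tween-20 and BSA.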
On the technique in general: TR-FRET usually uses a lanthanide donor and a delayed reading to cut background.

For experiment [1], the system named is COLO 205 colorectal tumor cells. Kind of experiment: Tumor cell viability inhibition assay (CellTiter-Glo 2.0, 72 hours). In kind it is cell-based. Conditions: Homo sapiens, COLO 205, 72 h, COLO 205 cell viability. The method in brief: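 IC50 derived by 4-parameter fitting after normalizing luminescence to DMSO and max-inhibition wells. Compounds tested as 11 concentrations in 4-fold steps on COLO 205 cells seeded at 1500 per well in RPMI-1640/10% FBS; ATP content measured with CellTiter-Glo 2.0 after 72 h.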

T1 sequence (P06730 whole entry): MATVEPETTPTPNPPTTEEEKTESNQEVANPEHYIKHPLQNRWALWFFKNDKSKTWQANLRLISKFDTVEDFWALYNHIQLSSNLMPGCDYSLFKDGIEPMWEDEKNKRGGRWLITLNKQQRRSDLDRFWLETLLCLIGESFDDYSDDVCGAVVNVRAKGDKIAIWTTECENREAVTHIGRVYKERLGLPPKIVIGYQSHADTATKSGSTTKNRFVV

For `Cc1cc(-c2cc(Cl)ccc2OCCn2c(C)nc3c(c2=O)C[C@H](N2CCC[C@@H](c4ccn(C)n4)C2)CC3)c2scc(C(=O)O)c2n1` (single isomer, unassigned) [Compound 447], the IC50 (as a rule, the midpoint of a concentration-inhibition curve) is below 0.1 µM at human eIF4E protein and 5 to 20 µM in experiment [1].
The like results for `Cc1cc(-c2cc(Cl)ccc2OCCn2c(C)nc3c(c2=O)C[C@](C)(N2CCC[C@@]4(C2)CC4(F)F)CC3)c2scc(C(=O)O)c2n1` (single isomer, unassigned) [Compound 554] were, in that order, 0.1 to 0.5 µM and 5 to 20 µM.
Turning to `Cc1cc(-c2cc(Cl)ccc2OCCn2c(C)nc3c(c2=O)C[C@@H](N2CCCC(C)[C@@H]2C(F)(F)F)CC32CC2)c2scc(C(=O)O)c2n1` (single isomer, unassigned) [Compound 625], the 50% inhibitory concentration (IC50) on human eIF4E protein is 0.1 to 0.5 µM; in experiment [1], 5 to 20 µM.
For `Cc1cc(-c2cc(Cl)ccc2OCCn2c(C)nc3c(c2=O)C[C@@H](N2CCC4(CC2)CC4(F)F)CC32CC2)c2scc(C(=O)O)c2n1` (single isomer, unassigned) [Compound 591], in that order: below 0.1 µM and below 5 µM.
As to `Cc1cc(-c2cc(Cl)ccc2OCCn2c(C)nc3c(c2=O)C[C@@H](N2CCCC[C@@H]2c2nccs2)CC3)c2scc(C(=O)O)c2n1` (single isomer, unassigned) [Compound 549], the half-inhibitory concentration (IC50) at human eIF4E protein was 0.1 to 0.5 µM; in experiment [1] it was above 20 µM.
Regarding `Cc1cc(-c2cc(Cl)ccc2OCCn2c(C)nc3c(c2=O)CC(N2CCC(OC(F)(F)F)CC2)CC3(C)C)c2scc(C(=O)O)c2n1` (single isomer, unassigned) [Compound 442, 7-(5-chloro-2-(2-(2,8,8-trimethyl-4-oxo-6-(4-(trifluoromethoxy)piperidin-1-yl)-5,6,7,8-tetrahydroquinazolin-3(4H)-yl)ethoxy)phenyl)-5-methylthieno[3,2-b]pyridine-3-carboxylic acid], the IC50 on human eIF4E protein was below 0.1 µM; in experiment [1], 5 to 20 µM.
For `Cc1cc(-c2cc(Cl)ccc2OCCn2c(C)nc3c(c2=O)C[C@@H](N2CCC(c4cncc(S(=O)(=O)NC(C)(C)C)c4)CC2)CC3)c2scc(C(=O)O)c2n1` (single isomer, unassigned) [Compound 456], in that order: below 0.1 µM and 5 to 20 µM.
Turning to `Cc1cc(-c2cc(Cl)ccc2OCCn2c(C)nc3c(c2=O)C[C@H](N2CC[C@@H](C(F)F)C2)CC3)c2scc(C(=O)O)c2n1` (single isomer, unassigned) [Compound 121], the IC50 is below 0.1 µM on human eIF4E protein and below 5 µM in experiment [1].
Take `Cc1cc(-c2cc(Cl)ccc2OCCn2c(C)nc3c(c2=O)C[C@H](N2C[C@@H]4CC(F)(F)C[C@@H]4C2)CC3)c2scc(C(=O)NS(C)(=O)=O)c2n1` (single isomer, unassigned) [Compound 368]: the IC50 on human eIF4E protein was below 0.1 µM; in experiment [1], below 5 µM.
The like results for `Cc1cc(-c2cc(Cl)ccc2OCCn2c(C)nc3c(c2=O)C[C@@H](N2CCC[C@H](c4ncccc4F)C2)CC3)c2scc(C(=O)O)c2n1` (single isomer, unassigned) [Compound 467] were, in that order, below 0.1 µM and below 5 µM.
Regarding `Cc1cc(-c2cc(Cl)ccc2OCCn2c(C)nc3c(c2=O)C[C@@H](N(C)[C@H]2CC[C@](C)(O)CC2)CC3)c2scc(C(=O)O)c2n1` (single isomer, unassigned) [Compound 226], the figures for the IC50 (on human eIF4E protein; in experiment [1]) were below 0.1 µM and above 20 µM, respectively.
For `Cc1cc(-c2cc(Cl)ccc2OCCn2c(C)nc3c(c2=O)C[C@@H](N2CCCC(F)(F)CC2)CC32CC2)c2scc(C(=O)O)c2n1` (single isomer, unassigned) [Compound 544], in that order: below 0.1 µM and below 5 µM.
The like results for `Cc1cc(-c2cc(Cl)ccc2OCCn2c(C)nc3c(c2=O)C[C@@H](N2CCC(c4noc5ccc(F)cc45)CC2)CC3)c2scc(C(=O)O)c2n1` (single isomer, unassigned) [Compound 449] were, in that order, below 0.1 µM and below 5 µM.
